# Reference: patent publication US20250144223A1, “PROTEIN DEGRADATION COMPOUND BASED ON NAMPT TARGET PROTEIN AND APPLICATION THEREOF” (GLUETACS THERAPEUTICS (SHANGHAI) CO., LTD., priority 2021, published 2025)
# System: Jurkat
# Assay: CellTiter-Glo Luminescent Cell Viability Assay, half inhibitory concentration (IC50) on tumor cell proliferation
# Type: cell-based
# Settings: Homo sapiens, Jurkat cells, 72 h treatment
# How it was run: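 Jurkat cells seeded at 20,000 cells/well in serum-containing RPMI1640, treated after 24 h with serially diluted compound for 72 h at 37 °C, 5% CO2. Viability read by CellTiter-Glo luminescence; IC50 calculated from growth-inhibition curves.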
row,Compound,IC50 [nM]
1,"O=C(/C=C/c1cccnc1)NCCCCC1CCN(C(=O)c2ccc(N3CCN(C(=O)CCCCNc4cccc5c4CN(C4CCC(=O)NC4=O)C5=O)CC3)cc2)CC1 (stereo not drawn) [SIAIS632016, (E)-N-(4-(1-(4-(4-(5-((2-(2,6-dioxopiperidin-3-yl)-1-oxoisoindolin-4-yl)amino)pentanoyl)piperazin-1-yl)benzoyl)piperidin-4-yl)butyl)-3-(pyridin-3-yl)acrylamide]",64.4
2,"O=C(/C=C/c1cccnc1)NCCCCC1CCN(C(=O)c2ccc(N3CCN(C(=O)CCCCCNc4cccc5c4CN(C4CCC(=O)NC4=O)C5=O)CC3)cc2)CC1 (stereo not drawn) [SIAIS632017, (E)-N-(4-(1-(4-(4-(6-((2-(2,6-dioxopiperidin-3-yl)-1-oxoisoindolin-4-yl)amino)hexanoyl)piperazin-1-yl)benzoyl)piperidin-4-yl)butyl)-3-(pyridin-3-yl)acrylamide]",21.2
3,"O=C(/C=C/c1cccnc1)NCCCCC1CCN(C(=O)c2ccc(N3CCN(C(=O)CCCCCCNc4cccc5c4CN(C4CCC(=O)NC4=O)C5=O)CC3)cc2)CC1 (stereo not drawn) [SIAIS632018, (E)-N-(4-(1-(4-(4-(7-((2-(2,6-dioxopiperidin-3-yl)-1-oxoisoindolin-4-yl)amino)heptanoyl)piperazin-1-yl)benzoyl)piperidin-4-yl)butyl)-3-(pyridin-3-yl)acrylamide]",55.5
4,"O=C(/C=C/c1cccnc1)NCCCCC1CCN(C(=O)c2ccc(N3CCN(C(=O)CSc4cccc5c4C(=O)N(C4CCC(=O)NC4=O)C5=O)CC3)cc2)CC1 (stereo not drawn) [SIAIS632027, (E)-N-(4-(1-(4-(4-(2-((2-(2,6-dioxopiperidin-3-yl)-1,3-dioxoisoindolin-4-yl)thio)acetyl)piperazin-1-yl)benzoyl)piperidin-4-yl)butyl)-3-(pyridin-3-yl)acrylamide]",294
5,"O=C(/C=C/c1cccnc1)NCCCCC1CCN(C(=O)c2ccc(N3CCN(C(=O)CCSc4cccc5c4C(=O)N(C4CCC(=O)NC4=O)C5=O)CC3)cc2)CC1 (stereo not drawn) [SIAIS632028, (E)-N-(4-(1-(4-(4-(3-((2-(2,6-dioxopiperidin-3-yl)-1,3-dioxoisoindolin-4-yl)thio)propanoyl)piperazin-1-yl)benzoyl)piperidin-4-yl)butyl)-3-(pyridin-3-yl)acrylamide]",105
6,"O=C(/C=C/c1cccnc1)NCCCCC1CCN(C(=O)c2ccc(N3CCN(C(=O)CCCCSc4cccc5c4C(=O)N(C4CCC(=O)NC4=O)C5=O)CC3)cc2)CC1 (stereo not drawn) [SIAIS632029, (E)-N-(4-(1-(4-(4-(5-((2-(2,6-dioxopiperidin-3-yl)-1,3-dioxoisoindolin-4-yl)thio)pentanoyl)piperazin-1-yl)benzoyl)piperidin-4-yl)butyl)-3-(pyridin-3-yl)acrylamide]",28.7
7,"O=C(/C=C/c1cccnc1)NCCCCC1CCN(C(=O)c2ccc(N3CCN(C(=O)CCCCCSc4cccc5c4C(=O)N(C4CCC(=O)NC4=O)C5=O)CC3)cc2)CC1 (stereo not drawn) [SIAIS632030, (E)-N-(4-(1-(4-(4-(6-((2-(2,6-dioxopiperidin-3-yl)-1,3-dioxoisoindolin-4-yl)thio)hexanoyl)piperazin-1-yl)benzoyl)piperidin-4-yl)butyl)-3-(pyridin-3-yl)acrylamide]",11
8,"O=C(/C=C/c1cccnc1)NCCCCC1CCN(C(=O)c2ccc(N3CCN(C(=O)CCCCCCSc4cccc5c4C(=O)N(C4CCC(=O)NC4=O)C5=O)CC3)cc2)CC1 (stereo not drawn) [SIAIS632031, (E)-N-(4-(1-(4-(4-(7-((2-(2,6-dioxopiperidin-3-yl)-1,3-dioxoisoindolin-4-yl)thio)heptanoyl)piperazin-1-yl)benzoyl)piperidin-4-yl)butyl)-3-(pyridin-3-yl)acrylamide]",24.4
9,"O=C(/C=C/c1cccnc1)NCCCCC1CCN(C(=O)c2ccc(N3CCN(C(=O)CCCCCCCSc4cccc5c4C(=O)N(C4CCC(=O)NC4=O)C5=O)CC3)cc2)CC1 (stereo not drawn) [SIAIS632032, (E)-N-(4-(1-(4-(4-(8-((2-(2,6-dioxopiperidin-3-yl)-1,3-dioxoisoindolin-4-yl)thio)octanoyl)piperazin-1-yl)benzoyl)piperidin-4-yl)butyl)-3-(pyridin-3-yl)acrylamide]",192
10,"O=C(/C=C/c1cccnc1)NCCCCC1CCN(C(=O)c2ccc(N3CCN(C(=O)COc4cccc5c4C(=O)N(C4CCC(=O)NC4=O)C5=O)CC3)cc2)CC1 (stereo not drawn) [SIAIS632033, (E)-N-(4-(1-(4-(4-(2-((2-(2,6-dioxopiperidin-3-yl)-1,3-dioxoisoindolin-4-yl)oxy)acetyl)piperazin-1-yl)benzoyl)piperidin-4-yl)butyl)-3-(pyridin-3-yl)acrylamide]",78.7
11,"O=C(/C=C/c1cccnc1)NCCCCC1CCN(C(=O)c2ccc(N3CCN(C(=O)CCCCOc4cccc5c4C(=O)N(C4CCC(=O)NC4=O)C5=O)CC3)cc2)CC1 (stereo not drawn) [SIAIS632034, (E)-N-(4-(1-(4-(4-(5-((2-(2,6-dioxopiperidin-3-yl)-1,3-dioxoisoindolin-4-yl)oxy)pentanoyl)piperazin-1-yl)benzoyl)piperidin-4-yl)butyl)-3-(pyridin-3-yl)acrylamide]",95.1
12,"O=C(/C=C/c1cccnc1)NCCCCC1CCN(C(=O)c2ccc(N3CCN(C(=O)CCCCCOc4cccc5c4C(=O)N(C4CCC(=O)NC4=O)C5=O)CC3)cc2)CC1 (stereo not drawn) [SIAIS632035, (E)-N-(4-(1-(4-(4-(6-((2-(2,6-dioxopiperidin-3-yl)-1,3-dioxoisoindolin-4-yl)oxy)hexanoyl)piperazin-1-yl)benzoyl)piperidin-4-yl)butyl)-3-(pyridin-3-yl)acrylamide]",8.52
13,"O=C(/C=C/c1cccnc1)NCCCCC1CCN(C(=O)c2ccc(N3CCN(C(=O)CCCCCCOc4cccc5c4C(=O)N(C4CCC(=O)NC4=O)C5=O)CC3)cc2)CC1 (stereo not drawn) [SIAIS632036, (E)-N-(4-(1-(4-(4-(7-((2-(2,6-dioxopiperidin-3-yl)-1,3-dioxoisoindolin-4-yl)oxy)heptanoyl)piperazin-1-yl)benzoyl)piperidin-4-yl)butyl)-3-(pyridin-3-yl)acrylamide]",29.3
14,"O=C(/C=C/c1cccnc1)NCCCCC1CCN(C(=O)c2ccc(N3CCN(CCCCCC#Cc4cccc5c4CN(C4CCC(=O)NC4=O)C5=O)CC3)nc2)CC1 (stereo not drawn) [SIAIS632039, (E)-N-(4-(1-(6-(4-(7-(2-(2,6-dioxopiperidin-3-yl)-1-oxoisoindolin-4-yl)hept-6-yn-1-yl)piperazin-1-yl)nicotinoyl)piperidin-4-yl)butyl)-3-(pyridin-3-yl)acrylamide]",2.75
15,"O=C(/C=C/c1cccnc1)NCCCCC1CCN(C(=O)c2ccc(N3CCN(CCCCCCC#Cc4cccc5c4CN(C4CCC(=O)NC4=O)C5=O)CC3)nc2)CC1 (stereo not drawn) [SIAIS632040, (E)-N-(4-(1-(6-(4-(8-(2-(2,6-dioxopiperidin-3-yl)-1-oxoisoindolin-4-yl)oct-7-yn-1-yl)piperazin-1-yl)nicotinoyl)piperidin-4-yl)butyl)-3-(pyridin-3-yl)acrylamide]",5.67
16,"O=C(/C=C/c1cccnc1)NCCCCC1CCN(C(=O)c2ccc(N3CCN(CCCCSc4cccc5c4CN(C4CCC(=O)NC4=O)C5=O)CC3)nc2)CC1 (stereo not drawn) [SIAIS632041, (E)-N-(4-(1-(6-(4-(4-((2-(2,6-dioxopiperidin-3-yl)-1-oxoisoindolin-4-yl)thio)butyl)piperazin-1-yl)nicotinoyl)piperidin-4-yl)butyl)-3-(pyridin-3-yl)acrylamide]",1.03
17,"Cc1ncsc1-c1ccc(CNC(=O)[C@@H]2C[C@@H](O)CN2C(=O)[C@@H](NC(=O)CCCCC(=O)N2CCN(C3CCN(c4ccc(C(=O)N5CCC(CCCCNC(=O)/C=C/c6cccnc6)CC5)nn4)CC3)CC2)C(C)(C)C)cc1 [SIAIS633063, (2S,4R)-1-((S)-3,3-dimethyl-2-(6-oxo-6-(4-(1-(6-(4-(4-((E)-3-(pyridin-3-yl)acrylamido)butyl)piperidine-1-carbonyl)pyridazin-3-yl)piperidin-4-yl)piperazin-1-yl)hexanamido)butanoyl)-4-hydroxy-N-(4-(4-methylthiazol-5-yl)benzyl)pyrrolidine-2-carboxamide]",255
18,"O=C(/C=C/c1cccnc1)NCCCCC1CCN(C(=O)c2ccc(N3CCC(N4CCN(CCCCCC#Cc5cccc6c5CN(C5CCC(=O)NC5=O)C6=O)CC4)CC3)nc2)CC1 (stereo not drawn) [SIAIS633093, (E)-N-(4-(1-(6-(4-(4-(7-(2-(2,6-dioxopiperidin-3-yl)-1-oxoisoindolin-4-yl)hept-6-yn-1-yl)piperazin-1-yl)piperidin-1-yl)nicotinoyl)piperidin-4-yl)butyl)-3-(pyridin-3-yl)acrylamide]",15.8
19,"O=C(/C=C/c1cccnc1)NCCCCC1CCN(C(=O)c2ccc(N3CCC(N4CCN(CCCCCCC#Cc5cccc6c5CN(C5CCC(=O)NC5=O)C6=O)CC4)CC3)nc2)CC1 (stereo not drawn) [SIAIS633094, (E)-N-(4-(1-(6-(4-(4-(8-(2-(2,6-dioxopiperidin-3-yl)-1-oxoisoindolin-4-yl)oct-7-yn-1-yl)piperazin-1-yl)piperidin-1-yl)nicotinoyl)piperidin-4-yl)butyl)-3-(pyridin-3-yl)acrylamide]",6.18
20,"O=C(/C=C/c1cccnc1)NCCCCC1CCN(C(=O)c2ccc(N3CCN(CCCCCCOc4cccc5c4CN(C4CCC(=O)NC4=O)C5=O)CC3)cc2)CC1 (stereo not drawn) [SIAIS633097, (E)-N-(4-(1-(4-(4-(6-((2-(2,6-dioxopiperidin-3-yl)-1-oxoisoindolin-4-yl)oxy)hexyl)piperazin-1-yl)benzoyl)piperidin-4-yl)butyl)-3-(pyridin-3-yl)acrylamide]",79
21,"O=C(/C=C/c1cccnc1)NCCCCC1CCN(C(=O)c2ccc(N3CCN(CCCCCCCOc4cccc5c4CN(C4CCC(=O)NC4=O)C5=O)CC3)cc2)CC1 (stereo not drawn) [SIAIS633098, (E)-N-(4-(1-(4-(4-(7-((2-(2,6-dioxopiperidin-3-yl)-1-oxoisoindolin-4-yl)oxy)heptyl)piperazin-1-yl)benzoyl)piperidin-4-yl)butyl)-3-(pyridin-3-yl)acrylamide]",33.9
